# Legend:
# [1] = target: T1, full-length beta-Catenin (Uniprot ID P35222) (Homo sapiens, UniProt P35222); assay: Fluorescence polarization IC50 (beta-catenin / 5FAM-TCF4 10-53 competition); type: binding; details: fluorescence polarization; read-out: beta-Catenin FP IC50
# T1 construct: 10 nM full-length beta-Catenin (Uniprot ID P35222)
# T1 sequence (P35222 1-781): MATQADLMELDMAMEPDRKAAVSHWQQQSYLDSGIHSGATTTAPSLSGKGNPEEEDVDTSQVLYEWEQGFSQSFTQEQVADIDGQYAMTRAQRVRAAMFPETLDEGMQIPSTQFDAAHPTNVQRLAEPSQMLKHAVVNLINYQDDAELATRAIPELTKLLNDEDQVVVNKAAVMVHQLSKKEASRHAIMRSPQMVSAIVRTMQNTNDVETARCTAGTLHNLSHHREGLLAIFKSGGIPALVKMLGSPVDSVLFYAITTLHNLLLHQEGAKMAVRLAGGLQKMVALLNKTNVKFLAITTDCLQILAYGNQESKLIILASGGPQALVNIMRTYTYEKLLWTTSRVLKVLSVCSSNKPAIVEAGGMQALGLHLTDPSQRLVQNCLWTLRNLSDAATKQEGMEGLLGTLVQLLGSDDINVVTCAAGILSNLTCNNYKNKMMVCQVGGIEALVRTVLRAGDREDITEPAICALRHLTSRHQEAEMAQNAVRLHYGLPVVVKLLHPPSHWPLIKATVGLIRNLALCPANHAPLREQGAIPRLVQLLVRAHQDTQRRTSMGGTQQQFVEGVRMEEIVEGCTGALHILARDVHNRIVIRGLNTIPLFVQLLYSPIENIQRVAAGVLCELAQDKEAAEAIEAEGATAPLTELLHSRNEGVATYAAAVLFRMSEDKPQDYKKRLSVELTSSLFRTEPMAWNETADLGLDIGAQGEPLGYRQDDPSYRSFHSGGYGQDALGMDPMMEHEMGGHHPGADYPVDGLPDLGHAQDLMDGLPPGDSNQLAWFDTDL
# [2] = target: T2, beta-catenin/TCF4 engagement (Homo sapiens, UniProt P35222); assay: Nano-BRET target engagement assay (B-cat-Halo & TCF4-Luc in HEK293 cells); type: cell-based; details: absolute IC50; read-out: NanoBRET Abs IC50
# T2 construct: expressed in transfected cells; host or cells: HEK293
# T2 sequence (P35222 1-781): T1 sequence (P35222 1-781)
IC50 [1] [nM],IC50 [2] [nM],Structure (SMILES)
70,28800,"CC(=O)N1CCC[C@]12CC=CCCCC1(CCCC=CCCCOC(=O)N3CC[C@@](C(=O)N[C@@H](Cc4ccsc4)C(=O)N[C@@H](Cc4csc5ccccc45)C(=O)N[C@@H](CO)C(N)=O)(C3)NC(=O)[C@H](CC(C)C)NC(=O)[C@H](Cc3ccccc3)NC(=O)[C@H](C)NC(=O)[C@H](C)NC(=O)[C@H]([C@@H](C)O)NC(=O)[C@H](CC(=O)O)NC1=O)NC(=O)[C@H](CC(C)(C)C)NC(=O)[C@H](CC(=O)O)NC2=O (stereo partly drawn) [I-1171, Ac-PL3-Asp-Npg-B5-Asp-Thr-Ala-Ala-Phe-Leu-PyrS2-3Thi-BztA-Ser-NH2]"
45,19400,"CC(=O)N1CCC[C@]12CC=CCCCC1(CCCC=CCCCOC(=O)N3CC[C@@](C(=O)N[C@@H](Cc4ccccc4Cl)C(=O)N[C@@H](Cc4csc5ccccc45)C(=O)N[C@@H](CO)C(N)=O)(C3)NC(=O)[C@H](CC(C)C)NC(=O)[C@H](Cc3ccccc3)NC(=O)[C@H](C)NC(=O)[C@H](C)NC(=O)[C@H]([C@@H](C)O)NC(=O)[C@H](CC(=O)O)NC1=O)NC(=O)[C@H](CC(C)(C)C)NC(=O)[C@H](CC(=O)O)NC2=O (stereo partly drawn) [I-1172, Ac-PL3-Asp-Npg-B5-Asp-Thr-Ala-Ala-Phe-Leu-PyrS2-2C1F-BztA-Ser-NH2]"
54.5,28800,"CC(=O)N1CCC[C@]12CC=CCCCC1(CCCC=CCCCOC(=O)N3CC[C@@](C(=O)N[C@@H](Cc4ccsc4)C(=O)N[C@@H](Cc4csc5ccccc45)C(=O)N[C@@H](CCC(N)=O)C(N)=O)(C3)NC(=O)[C@H](CC(C)C)NC(=O)[C@H](Cc3ccccc3)NC(=O)C(C)(C)NC(=O)[C@H](C)NC(=O)[C@H](CC(=O)O)NC(=O)[C@H](CC(=O)O)NC1=O)NC(=O)[C@H](CC(C)(C)C)NC(=O)[C@H](CC(=O)O)NC2=O (stereo partly drawn) [I-1178, Ac-PL3-Asp-Npg-B5-Asp-Asp-Ala-Aib-Phe-Leu-PyrS2-3Thi-BztA-Gln-NH2]"
10,> 20000,"C[C@@H]1NC(=O)[C@H](C)NC(=O)[C@H](CC(=O)O)NC(=O)[C@H](CC(=O)O)NC(=O)C2(CCCC=CCCCOC(=O)N3CC[C@@](C(=O)N[C@@H](Cc4ccsc4)C(=O)N[C@@H](Cc4csc5ccccc45)C(=O)N[C@@H](CCC(N)=O)C(N)=O)(C3)NC(=O)[C@H](CC(N)=O)NC(=O)[C@H](Cc3ccccc3)NC1=O)CCCC=CC[C@]1(CCCN1S(C)(=O)=O)C(=O)N[C@@H](CC(=O)O)C(=O)N[C@@H](CC(C)(C)C)C(=O)N2 (stereo partly drawn) [I-1218, MeSO2-PL3-Asp-Npg-B5-Asp-Asp-Ala-Ala-Phe-Asn-PyrS2-3Thi-BztA-Gln-NH2]"
7,> 20000,"C[C@@H]1NC(=O)[C@H](C)NC(=O)[C@H](CN(CC(=O)O)CC(F)(F)F)NC(=O)[C@H](CC(=O)O)NC(=O)C2(CCCC=CCCCOC(=O)N3CC[C@@](C(=O)N[C@@H](Cc4ccsc4)C(=O)N[C@@H](Cc4csc5ccccc45)C(=O)N[C@@H](CCC(N)=O)C(N)=O)(C3)NC(=O)[C@H](CC(N)=O)NC(=O)[C@H](Cc3ccccc3)NC1=O)CCCC=CC[C@]1(CCCN1S(C)(=O)=O)C(=O)N[C@@H](CC(=O)O)C(=O)N[C@@H](CC(C)(C)C)C(=O)N2 (stereo partly drawn) [I-1219, MeSO2-PL3-Asp-Npg-B5-Asp-TfeGA-Ala-Ala-Phe-Asn-PyrS2-3Thi-BztA-Gln-NH2]"
11,17300,"CC(=O)N1CCC[C@]12CC=CCCCC1(CCCC=CCCCOC(=O)N3CC[C@@](C(=O)N[C@@H](Cc4ccsc4)C(=O)N[C@@H](Cc4csc5ccccc45)C(=O)N[C@@H](CCC(N)=O)C(N)=O)(C3)NC(=O)[C@H](CC(N)=O)NC(=O)[C@H](Cc3ccccc3)NC(=O)[C@H](C)NC(=O)[C@H](C)NC(=O)[C@H](CC(=O)O)NC(=O)[C@H](CC(=O)O)NC1=O)NC(=O)[C@H](CC(C)(C)C)NC(=O)[C@H](CC(N)=O)NC2=O (stereo partly drawn) [I-1220, Ac-PL3-Asn-Npg-B5-Asp-Asp-Ala-Ala-Phe-Asn-PyrS2-3Thi-BztA-Gln-NH2]"
14,23400,"CC(=O)N1CCC[C@]12CC=CCCCC1(CCCC=CCCCOC(=O)N3CC[C@@](C(=O)N[C@@H](Cc4ccsc4)C(=O)N[C@@H](Cc4csc5ccccc45)C(=O)N[C@@H](CCC(N)=O)C(N)=O)(C3)NC(=O)[C@H](CC(C)C)NC(=O)[C@H](Cc3ccccc3)NC(=O)[C@H](C)NC(=O)[C@H](C)NC(=O)[C@H](CC(=O)O)NC(=O)[C@H](CC(=O)O)NC1=O)NC(=O)[C@H](CC(C)(C)C)NC(=O)[C@H](CC(N)=O)NC2=O (stereo partly drawn) [I-1221, Ac-PL3-Asn-Npg-B5-Asp-Asp-Ala-Ala-Phe-Leu-PyrS2-3Thi-BztA-Gln-NH2]"
31,43300,"CC(=O)N1CCC[C@]12CC=CCCCC1(CCCC=CCCCOC(=O)N3CC[C@@](C(=O)N[C@@H](Cc4ccsc4)C(=O)N[C@@H](Cc4cccc5ccccc45)C(=O)N[C@@H](CCC(N)=O)C(N)=O)(C3)NC(=O)[C@H]([C@@H](C)O)NC(=O)[C@H](Cc3ccccc3)NC(=O)[C@H](C)NC(=O)[C@H](C)NC(=O)[C@H](CC(=O)O)NC(=O)[C@H](CC(=O)O)NC1=O)NC(=O)[C@H](CC(C)(C)C)NC(=O)[C@H](CC(=O)O)NC2=O (stereo partly drawn) [I-1232, Ac-PL3-Asp-Npg-B5-Asp-Asp-Ala-Ala-Phe-Thr-PyrS2-3Thi-1NapA-Gln-NH2]"
24,54500,"CC(=O)N1CCC[C@]12CC=CCCCC1(CCCC=CCCCOC(=O)N3CC[C@@](C(=O)N[C@@H](Cc4ccsc4)C(=O)N[C@@H](Cc4ccc5ccccc5c4)C(=O)N[C@@H](CCC(N)=O)C(N)=O)(C3)NC(=O)[C@H]([C@@H](C)O)NC(=O)[C@H](Cc3ccccc3)NC(=O)[C@H](C)NC(=O)[C@H](C)NC(=O)[C@H](CC(=O)O)NC(=O)[C@H](CC(=O)O)NC1=O)NC(=O)[C@H](CC(C)(C)C)NC(=O)[C@H](CC(=O)O)NC2=O (stereo partly drawn) [I-1233, Ac-PL3-Asp-Npg-B5-Asp-Asp-Ala-Ala-Phe-Thr-PyrS2-3Thi-2NapA-Gln-NH2]"
41,23900,"CC(=O)N1CCC[C@]12CC=CCCCC1(CCCC=CCCCOC(=O)N3CC[C@@](C(=O)N[C@@H](Cc4ccsc4)C(=O)N[C@@H](Cc4cccc5ccccc45)C(=O)N[C@@H](CCC(N)=O)C(N)=O)(C3)NC(=O)[C@H](CC(C)C)NC(=O)[C@H](Cc3ccccc3)NC(=O)[C@H](C)NC(=O)[C@H](C)NC(=O)[C@H](CC(=O)O)NC(=O)[C@H](CC(=O)O)NC1=O)NC(=O)[C@H](CC(C)(C)C)NC(=O)[C@H](CC(=O)O)NC2=O (stereo partly drawn) [I-1234, Ac-PL3-Asp-Npg-B5-Asp-Asp-Ala-Ala-Phe-Leu-PyrS2-3Thi-1NapA-Gln-NH2]"
27,24800,"CC(=O)N1CCC[C@]12CC=CCCCC1(CCCC=CCCCOC(=O)N3CC[C@@](C(=O)N[C@@H](Cc4ccsc4)C(=O)N[C@@H](Cc4ccc5ccccc5c4)C(=O)N[C@@H](CCC(N)=O)C(N)=O)(C3)NC(=O)[C@H](CC(C)C)NC(=O)[C@H](Cc3ccccc3)NC(=O)[C@H](C)NC(=O)[C@H](C)NC(=O)[C@H](CC(=O)O)NC(=O)[C@H](CC(=O)O)NC1=O)NC(=O)[C@H](CC(C)(C)C)NC(=O)[C@H](CC(=O)O)NC2=O (stereo partly drawn) [I-1235, Ac-PL3-Asp-Npg-B5-Asp-Asp-Ala-Ala-Phe-Leu-PyrS2-3Thi-2NapA-Gln-NH2]"
69,20900,"CC(=O)N1CCC[C@]12CC=CCCCC1(CCCC=CCCCOC(=O)N3CC[C@@](C(=O)N[C@@H](Cc4ccccc4Cl)C(=O)N[C@@H](Cc4cccc5ccccc45)C(=O)N[C@@H](CCC(N)=O)C(N)=O)(C3)NC(=O)[C@H](CC(C)C)NC(=O)[C@H](Cc3ccccc3)NC(=O)[C@H](C)NC(=O)[C@H](C)NC(=O)[C@H](CC(=O)O)NC(=O)[C@H](CC(=O)O)NC1=O)NC(=O)[C@H](CC(C)(C)C)NC(=O)[C@H](CC(=O)O)NC2=O (stereo partly drawn) [I-1236, Ac-PL3-Asp-Npg-B5-Asp-Asp-Ala-Ala-Phe-Leu-PyrS2-2C1F-1NapA-Gln-NH2]"

# Source: patent publication US20240116985A1, “STAPLED PEPTIDES AND METHODS THEREOF” (priority 2020, published 2024)
